From US8481691B2, “Method for selectively extracting membrane proteins using calixarenes” (Centre National de la Recherche Scientifique—CNRS, priority 2008, dated 2013)

Legend:
BmrA [1] = target: T1, BmrA (Bacillus subtilis, UniProt O06967); experiment: Vanadate-sensitive ATPase activity of BmrA after solubilization; format: biochemical; conditions: for ATPase activity of BmrA with solubilization: increasing detergent concentration; for ATPase activity of BmrA with solubilization / Effect on ATPase activity of BmrA: FIG. 9; for Effect on ATPase activity of BmrA: 1 mg/ml; for ATPase activity of BmrA after reconstitution in liposomes: after removal of the detergents; for Loss of ATPase activity of BmrA once solubilized: relative to BmrA activity in natural membranes
T1 construct: made in house; host or cells: E. coli C41 BL21(DE3), plasmid pET15b-BMRA; isolated membrane fraction
Description: The solubilization tests take place as in FIG. 8 and the ATPase activity tests are described in example 11. The vertical dotted lines show the CMC of each compound. The black lozenges correspond to a test in which BmrA is solubilized with p(COOH)3—Ar4-o(C7H15) then reconstituted in lipids after removal of the detergent with biobeads (Bio-Rad) according to the procedure described in Lenoir et al..
The percentage of specific ATPase activity sensitive to vanadate (% SA or % VO4 sensitive Specific ATPase Activity) is evaluated for the following different cases: • BmrA Mb: activity of BmrA in natural membranes, • DDM sup./DDM: activity of BmrA in the DDM extract, • DDM sup./Lip.: activity of BmrA from the DDM extract and reconstituted in liposomes, • FC12 sup./FC12: activity of BmrA in the Foscholine 12 extract, • FC12 sup./Lip.: activity of BmrA from the Foscholine 12 extract and reconstituted in liposomes, • C4C7 sup./[…]: activity of BmrA in the calixarene C4C7 (in other words calix[4]arene-O-heptyloxy) extract, • C4C7 sup./Lip.: activity of BmrA from the calixarene C4C7 extract and reconstituted in liposomes.
FIG. 12 summarizes the results of an extraction successively using the calixarenes C4C3 then C4C7 (FIG. 12A) followed by purification by gel filtration chromatography (FIGS. 12B-E).
The ATPase activity is measured by evaluating the inorganic phosphate content (Pi) after 5 minutes of incubation at 37° C. The fraction of Pi produced by other ATPase activities is deducted by measuring the same activity in the presence of 1 mM of ortho vanadate which inhibits the ATPase activity of BmrA (for example as described in [10]).
The effect of the solubilization by the p(COOH)3—Ar4-o(CnH2n+1) series on the ATPase activity of BmrA was analyzed under the same conditions as in FIG. 8.
The effects of the solubilization on the activity of the BmrA protein were evaluated with various C4Cn calixarenes, in other words the p(COOH)3—Ar4-o(CnH2n+1) calixarenes, but also with the control detergents such as Foscholine 12 (FC12) and β-D-dodecyl maltopyranoside (DDM), then the extracts obtained (supernatant fractions) were dialyzed in the presence of liposomes in order to restore a membrane environment, which enables the recovery of the activity of the protein.

[2] = Aggregation state / apparent diameter of aggregates; format: physicochemical
[3] = Critical Micellar Concentration estimated from surface tension data; format: physicochemical
Experimental: The effect of the molecules having an alkyl chain with 1 to 12 methylene groups (m, x axis in the figure) on the CMC is measured at a concentration of 10^−2 M, at pH 6.0 (solid circles) and 8.0 (open circles). Each point corresponds to the mean of three values, estimated from the data from FIG. 2.
(§1) The surfactant properties of the calixarenes of formula (I) are evaluated in a 1 ml sitting drop by means of a Kibron micro-depression instrument and using a stainless steel syringe and a Wilhelmy balance. The curves obtained are processed with the software Sigmaplot v11.
Critical Micellar Concentration (CMC) is understood to mean the concentration beyond which the concentration of the detergent molecules no longer increases since said molecules are involved in micelles (FIG. 13). […] Conversely, when the alkyl chains include more than 8 methylene groups, the resulting CMC decreases appreciably to 0.15 mM when the pH increases from 6 to 8.

BmrA [4] = target: T1, BmrA; experiment: Solubilization of BmrA from enriched membrane fractions (centrifugation, SDS PAGE); format: biochemical, E. coli membrane fraction; conditions: for Solubilization of BmrA: FIG. 8; for Solubilization of BmrA (found in supernatant): detergent 10 mg/ml (1%), 2 mg proteins/ml, 2 hrs at 4° C., FIG. 7
Description: The gray and black dotted lines and the black line serve as a scale of the efficacy of the molecules to be solubilized. The “no det” lines signify “without detergent”.
The experimental conditions are those of FIG. 7, with the exception of the concentrations of the butyl, heptyl and dodecyl molecules which are as indicated in the figure, for which the g/L<->M correspondence is indicated in Table 2. The “no det” lines signify “without detergent”.
The competent bacteria C41 BL21(DE3) E. coli (Escherichia coli) were transformed with the plasmid pET15b-BMRA bearing the gene coding for BmrA and placed under the control of an inducible promoter and a gene coding for the protein conferring resistance to ampicillin. A positive clone was cultured in a liquid medium at 37° C. and 200 rpm in the presence of ampicillin until a semi-exponential growth phase. The expression of BmrA is induced by addition of 1 mM of isopropyl thio β-galactoside and continued at 25° C. for 4 hrs. The bacteria were harvested by centrifugation, disrupted in a French press, and the membrane fraction was isolated by a series of centrifugation stages at low and high speeds. The protein content was evaluated by colorimetry and set at 20 mg/ml (20 mM Tris-Cl pH 8.0, […] NaCl, 300 mM sucrose) before freezing and storage in liquid nitrogen. Before use, the membrane fraction is then rapidly thawed in water and maintained at 4° C. in ice.
The solubilization is effected at 4° C.

[5] = Surface tension measurement of water (surfactant properties); format: physicochemical
Description: The effect of the derivatives of calix[4]arene containing alkyl chains with 1 to 12 carbon atoms on the surface tension of water was followed as a function of the concentration of said derivatives (molar M or mol/L) at pH 6.0 (not exposed) and 8.0 (exposed). The surface-active properties of DDM (β-D-dodecyl malto-pyranoside) are also shown in this figure. Each point corresponds to the mean of three values.
The effect of the molecules containing an alkyl chain having from 1 to 12 methylene groups (n, x axis in FIG. 3) on the surface tension of water was measured at a concentration of 10^−2M, at pH 6.0 (open circles) and at pH 8.0 (squares). Each point corresponds to the mean of three values.
as §1

[6] = Modulation of surfactant potential by amino acids (surface tension); format: physicochemical; conditions: compound 10^−2 M, pH 8.0
Experimental: The compound p(COOH)3—Ar4-o(C7H15) is present at a concentration of 10^−2 M whereas that of the amino acids vary as indicated. The surface tension is measured at pH 8.0. The amino acids are indicated by their three-letter code: Glu=glutamic acid, Trp=tryptophan, Asn=asparagine, Gly=glycine, Ala=alanine, Ser=serine, Phe=phenylalanine, Leu=leucine, Pro=Proline, Lys=lysine, His=histidine, Arg=arginine. Each point corresponds to the mean of three values.
as §1

T1 sequence (O06967 whole entry): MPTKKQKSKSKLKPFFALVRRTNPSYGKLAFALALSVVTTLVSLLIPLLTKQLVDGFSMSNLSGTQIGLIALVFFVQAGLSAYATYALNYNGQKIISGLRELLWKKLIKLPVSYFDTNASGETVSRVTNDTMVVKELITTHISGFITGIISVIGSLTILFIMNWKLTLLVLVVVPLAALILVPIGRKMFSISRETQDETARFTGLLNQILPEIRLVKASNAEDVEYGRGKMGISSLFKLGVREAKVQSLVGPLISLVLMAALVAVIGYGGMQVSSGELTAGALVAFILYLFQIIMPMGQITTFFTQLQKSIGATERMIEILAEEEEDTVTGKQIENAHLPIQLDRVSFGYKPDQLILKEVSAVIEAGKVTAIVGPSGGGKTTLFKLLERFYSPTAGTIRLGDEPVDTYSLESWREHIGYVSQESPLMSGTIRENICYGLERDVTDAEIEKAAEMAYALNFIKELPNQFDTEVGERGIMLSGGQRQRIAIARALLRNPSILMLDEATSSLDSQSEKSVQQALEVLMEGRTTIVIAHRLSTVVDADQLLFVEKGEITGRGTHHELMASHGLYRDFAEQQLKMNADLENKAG

With `CCCCCCCCCCCCOCCOCCOCCOCCOCCOCCOCCOCCO` [C12E8] the “ATPase activity of BmrA with solubilization” value (BmrA [1]) was “decreases with the solubilization”.
For `CCCCCCCCCCCCOc1c2cccc1Cc1cc(CC(=O)O)cc(c1O)Cc1cc(CC(=O)O)cc(c1O)Cc1cc(CC(=O)O)cc(c1O)C2` [compound 5d, 5,11,17 tris-[(carboxylato)methyl]25-mono-dodecyl 26,27,28 tris-hydroxycalix[4]arene], the “Apparent diameter (nm)” value ([2]; pH 2) was 880 nm, the “Apparent diameter (nm)” value ([2]; pH 6) was 190 nm and the “CMC” value [3] was ~0.15 mM. The “Critical Micellar Concentration (CMC)” value [3] was 0.15 mM, the “Effect on ATPase activity of BmrA” value (BmrA [1]) was “does not lead to inactivation” and the “Solubilization of BmrA” value (BmrA [4]; 1 mg/ml) was “rather effectively”. The “Solubilization of BmrA” value (BmrA [4]; at CMC of 0.15 mM (0.1 g/L)) was “no solubilization”, the “Surface tension plateau relative to initial surface tension” value ([5]; 10^−2 M, pH 8.0, FIG. 3) was “half the initial surface tension” and the “Surfactant properties (ability to decrease the surface tension of water)” value ([5]; as a function of concentration, FIG. 2) was “surfactant properties close to those of DDM”.
With `COc1c2cccc1Cc1cc(CC(=O)O)cc(c1O)Cc1cc(CC(=O)O)cc(c1O)Cc1cc(CC(=O)O)cc(c1O)C2` [compound 5a, 5,11,17 tris-[(carboxylato)methyl]25-mono-methyloxy 26,27,28 tris-hydroxycalix[4]arene] the “Apparent diameter (nm)” value ([2]; pH 2) was 950 nm, the “Apparent diameter (nm)” value ([2]; pH 4) was 340 nm and the “Apparent diameter (nm)” value ([2]; pH 8) was 270 nm. For the same molecule, the “CMC” value [3] was >1.5 mM and the “Solubilization of BmrA (found in supernatant)” value (BmrA [4]) was “No solubilization”.
In the case of `CCCCCCOc1c2cccc1Cc1cc(CC(=O)O)cc(c1O)Cc1cc(CC(=O)O)cc(c1O)Cc1cc(CC(=O)O)cc(c1O)C2` [compound 5c], the “Apparent diameter (nm)” value ([2]; pH 2) is reported as 850 nm, the “Apparent diameter (nm)” value ([2]; pH 6) is reported as 400 nm and the “Solubilization of BmrA (found in supernatant)” value (BmrA [4]) is reported as “more pronounced”.
For calix[4]arene-O-heptyloxy [C4C7], the “CMC” value [3] was ~1.5 mM, the “Critical Micellar Concentration (CMC)” value [3] was “about 1.5 mM” and the “Effect on ATPase activity of BmrA” value (BmrA [1]) was “does not lead to inactivation”. The “ATPase activity of BmrA preserved” value (BmrA [1]; C4C3 and C4C7 used successively, FIG. 11) was “about 50%”, the “ATPase activity of BmrA fraction after gel filtration” value (BmrA [1]; extracted with C4C7, gel filtration in the presence of FC12, fraction a FIG. 12E) was “recovered active” and the “ATPase activity of BmrA fraction reconstituted in liposomes” value (BmrA [1]; extracted with C4C7, gel filtration, then liposomes, fraction b FIG. 12E) was “elevated ATPase activity was recovered”. For the same molecule, the “Solubilization of BmrA” value (BmrA [4]; 1 mg/ml) was “rather effectively”, the “Effect of amino acid on surface tension” value ([6]; alanine, phenylalanine, leucine) was “amplified” and the “Effect of amino acid on surface tension” value ([6]; glutamic acid or asparagine) was “No effect”. For the same molecule, the “Effect of amino acid on surface tension” value ([6]; glycine) was “moderate effect”, the “Effect of amino acid on surface tension” value ([6]; positively charged amino acids histidine, lysine, arginine, listed as n=7) was “very pronounced” and the “Effect of amino acid on surface tension” value ([6]; positively charged amino acids histidine, lysine, arginine, listed as p(COOH)3—Ar4-o(C7H15)) was “easily increased”.
In the case of `CCCCCCCCCCCCO[C@@H]1O[C@H](CO)[C@@H](O[C@H]2O[C@H](CO)[C@@H](O)[C@H](O)[C@H]2O)[C@H](O)[C@H]1O` [DDM, n-dodecyl-β-D-maltopyranoside], the “ATPase activity of BmrA after reconstitution in liposomes” value (BmrA [1]; FIG. 11) is reported as “recovered”, the “Loss of ATPase activity of BmrA once solubilized” value (BmrA [1]; FIG. 11) is reported as 95% and the “Solubilization of BmrA (found in supernatant)” value (BmrA [4]) is reported as “more pronounced”.
In the case of `CCCCOc1c2cccc1Cc1cc(CC(=O)O)cc(c1O)Cc1cc(CC(=O)O)cc(c1O)Cc1cc(CC(=O)O)cc(c1O)C2` [compound 5b, 5,11,17 tris-[(carboxylato)methyl]25-mono-butyloxy 26,27,28 tris-hydroxycalix[4]arene], the “Apparent diameter (nm)” value ([2]; pH 2) is reported as 500 nm, the “Apparent diameter (nm)” value ([2]; pH 6) is reported as 145 nm and the “Solubilization of BmrA (found in supernatant)” value (BmrA [4]) is reported as “increases progressively”.
For `CCCCCCCCCCCCOP(=O)([O-])OCC[N+](C)(C)C` [FC12, n-dodecylphosphocholine], the “ATPase activity of BmrA after reconstitution in liposomes” value (BmrA [1]; FIG. 11) was “recovered”, the “ATPase activity of BmrA with solubilization” value (BmrA [1]) was “decreases with the solubilization” and the “Loss of ATPase activity of BmrA once solubilized” value (BmrA [1]; FIG. 11) was 99%. For the same molecule, the “Solubilization of BmrA (found in supernatant)” value (BmrA [4]) was “complete”.
